Read-outs that look alike come from different tables or passages of the source.
Experiments:
Assay type in all cases: biochemical, HCV genotype 1b
HCV NS3 protease [1] = target: HCV NS3 protease (UniProt P26663); design: rows headed: difference in potency between (1R,2S) compound and its (1S,2S) isomer; other: 801 vs. corresponding (1S,2S) isomer; conditions: 801 vs. corresponding (1S,2S) isomer
Procedure: (§1) Recombinant HCV NS3 Protease/NS4A Cofactor Peptide Radiometric Assay
(§2) The enzyme was cloned, expressed and prepared according to the protocol described in Example 36. The enzyme was stored at −80° C., thawed on ice and diluted just prior to use in the assay buffer containing the NS4A cofactor peptide.
(§3) The substrate used for the NS3 protease/NS4A cofactor peptide radiometric assay, DDIVPC-SMSYTW, is cleaved between the cysteine and the serine residues by the enzyme. The sequence DDIVPC-SMSYTW corresponds to the NS5A/NS5B natural cleavage site in which the cysteine residue in P2 has been substituted for a proline. […] (molar ratio enzyme:cofactor 1:100) in the absence or presence of inhibitors. The separation of substrate from products is performed by adding avidin-coated agarose beads to the assay mixture followed by filtration. […]
(§4) The NS2-NS5B-3′ non coding region was cloned by RT-PCR into the pCR®3 vector (Invitrogen) using RNA extracted from the serum of an HCV genotype 1b infected individual (provided by Dr. Bernard Willems, Hôpital St-Luc, Montréal, Québec, Canada). […] Fluorescence of the N-terminal product was monitored on a Perkin-Elmer LS-50B fluorometer equipped with a 96-well plate reader (excitation wavelength: 325 nm; emission wavelength: 423 nm). […]

HCV NS3 protease [2] = target: HCV NS3 protease (UniProt P26663); conditions: read-out: activity / potency (HCV NS3 protease inhibition); text comparison of P1 configuration
Procedure: as §1, §2, §3, §4

HCV NS3 protease [3] = target: HCV NS3 protease (UniProt P26663); design: rows headed: IC50 (μM); IC50 (μM)

HCV NS3 protease, sequence (P26663 1027-1206, other chains not shown): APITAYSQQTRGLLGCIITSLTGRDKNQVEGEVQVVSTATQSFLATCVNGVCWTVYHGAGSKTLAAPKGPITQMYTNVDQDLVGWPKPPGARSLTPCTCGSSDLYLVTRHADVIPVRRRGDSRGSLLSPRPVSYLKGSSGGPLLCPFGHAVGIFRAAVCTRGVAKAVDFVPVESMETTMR

Compound | difference in potency between (1R,2S) compound and its (1S,2S) isomer (HCV NS3 protease [1]) | IC50 (HCV NS3 protease [2]) | IC50 (HCV NS3 protease [3]; Table 8) | IC50 (HCV NS3 protease [3]; Table 9)
C=CC1CC1(NC(=O)C1CC(Oc2cc(-c3ccccc3)nc3cc(OC)ccc23)CN1C(=O)C(NC(=O)NC(C)(C)C)C(C)(C)C)C(=O)O (stereo not drawn) [compound 801] | over 1500 fold | 6 nM | 6 nM | 
C=CC1CC1(NC(=O)C1CC(Oc2cc(-c3ccccc3)nc3cc(OC)ccc23)CN1C(=O)C(NC(=O)OC(C)(C)C)C(C)(C)C)C(=O)O (stereo not drawn) [compound 901] |  | 25 nM |  | 25 nM
C=CC1CC1(NC(=O)C1CC(Oc2cc(-c3ccccc3)nc3cc(OC)ccc23)CN1C(=O)C(NS(=O)(=O)c1cccs1)C(C)(C)C)C(=O)O (stereo not drawn) [compound 912] |  |  |  | 34 nM
C=CC1CC1(NC(=O)C1CC(Oc2cc(-c3ccccc3)nc3cc(OC)ccc23)CN1C(=O)C(NC(=O)Nc1nccs1)C(C)(C)C)C(=O)O (stereo not drawn) [compound 913] |  |  |  | 30 nM
C=CC1CC1(NC(=O)C1CC(Oc2cc(-c3ccccc3)nc3cc(OC)ccc23)CN1C(=O)C(NS(=O)(=O)c1sc(NC(C)=O)nc1C)C(C)(C)C)C(=O)O (stereo not drawn) [compound 914] |  |  |  | 31 nM
C=CC1CC1(NC(=O)C1CC(Oc2cc(-c3ccccc3)nc3cc(OC)ccc23)CN1C(=O)C(NC(=O)c1ccc[nH]1)C(C)(C)C)C(=O)O (stereo not drawn) [compound 916] |  |  |  | 300 nM

Reference: patent US6534523B1, “Hepatitis C inhibitor tri-peptides” (Boehringer Ingelheim (Canada) Ltd., priority 1998, dated 2003)
